Measurements: patent US10711007B2, “Selective inhibitors of protein arginine methyltransferase 5 (PRMT5)” (Prelude Therapeutics, Incorporated, priority 2018, dated 2020)
pIC50: −log10 of the molar value.

Tests used:
Format in all cases: cell-based
[1] = system: γ-globin expression in K562 cells; assay: γ-globin induction by quantitative PCR in K562 cells; conditions: 1 μM, 6 days of treatment, N=1
Description: (§1) Compounds were dissolved in DMSO to make 10 mM stock solutions, and further diluted to make 1 mM and 0.1 mM stocks.
K562 cells were purchased from ATCC and maintained in Iscove's DMEM (Corning Cellgro, Catalog #15-016-CVR) supplemented with 10% v/v FBS (GE Healthcare, Catalog #: SH30910.03) in a CO2 incubator (5% CO2) at 37° C. Cells were plated at a density of 5×10^5 cells/ml and treated with compound at final concentrations of 0.1 and 1 μM. Media and compound were renewed after 3 days in culture and cells were collected for RNA isolation after 6 days of treatment.
(§2) Assessment of γ-Globin Induction by Quantitative PCR
RNA was isolated using Quick-RNA Microprep kit (Zymo Research, Catalog # Z1050), cDNA was synthesized using qScript cDNA SuperMix (Quantabio, Catalog #95048). Quantitative PCR for y-globin was performed using PerfeCTa SYBR Green FastMix (Quantabio, Catalog #95071) on Bio-Rad CFX Connect Real-Time PCR Detection System. Gene expression analysis was performed using CFX Manager software.
Assessment of γ-Globin Induction by Quantitative PCR in K562 Cells
Compounds were dissolved in DMSO to make 10 mM stock solutions, and further diluted to make 1 mM and 0.1 mM stocks. K562 cells were purchased from ATCC and maintained in Iscove's DMEM (Corning Cellgro, Catalog #15-016-CVR) supplemented with 10% v/v FBS (GE Healthcare, Catalog #: SH30910.03) in a CO2 incubator (5% CO2) at 37° C. […]

[2] = system: γ-globin expression in erythroid progenitors; assay: γ-globin induction by quantitative PCR in human erythroid progenitor cells; conditions: 9 days of treatment, N=1
Description: as §1
Human erythroid progenitor cells were generated from purified CD34+ cells from mobilized peripheral blood purchased from AllCells. CD34+ cells were cultured in StemSpan SFEM II (StemCell Technologies, Catalog #09605) supplemented with 100 ng/ml FLT3 ligand (R&D systems, Catalog #308-FK), 100 ng/ml SCF (R&D systems, Catalog #255-SC), 20 ng/ml IL-3 (R&D systems, Catalog #203-IL), 20 ng/ml IL-6 (R&D systems, Catalog #206-IL) for 6 days, then reseeded into the same medium supplemented with 20 ng/ml SCF, 5 ng/ml IL-3, 1 U/ml EPO (R&D systems, Catalog #287-TC), 2 μM dexamethasone (Sigma-Aldrich, Catalog # D4902), 1 μM β-estradiol (Sigma-Aldrich, Catalog # E2758). Cells were treated with 0.1 and 1 μM compound from Day 8 of differentiation. Media and compound were renewed every 3 days and cells were collected for RNA isolation after 9 days of treatment.
as §2
RNA was isolated using Quick-RNA Microprep kit (Zymo Research, Catalog # Z1050), cDNA was synthesized using qScript cDNA SuperMix (Quantabio, Catalog #95048). Quantitative PCR for y-globin was performed using PerfeCTa SYBR Green FastMix (Quantabio, Catalog #95071) on Bio-Rad CFX Connect Real-Time PCR Detection System. […]

[3] = system: sDMA (SmD3me2s) in human PBMCs; assay: Western blotting for sDMA in PHA-L activated human PBMCs; conditions: PBMC, 72 h, 3 days
Description: Compound Titration and Cell Culture:
Compounds were dissolved in DMSO to make 10 mM stock solutions. Human peripheral blood mononuclear cells (PBMCs) from healthy donors were purchased from AllCells (Emeryville, Calif.), maintained in RPMI 1640 (Corning Cellgro, Catalog #: 10-040-CV) supplemented with 10% v/v heat-inactivated FBS (GE Healthcare, Catalog #: SH30910.03), 2 mM L-Glutamine (Corning Cellgro, Catalog #25005CV) and 1× Penicillin-Streptomycin (Sigma-Aldrich, Catalog # P4333) in a CO2 incubator (5% CO2) at 37° C.
To Determine Enzyme Inhibition IC50 Values in Human PBMCs:
Freshly thawed cells were seeded at a density of 25×10^5 cells/ml in 2 ml of media in a 12 well plate. Cells were activated by addition of 5 μg/ml PHA-L (Sigma-Aldrich, Catalog # L4144) for 3 days. A series of 8-point, 3-fold dilutions of compound were dispensed into wells from 1 mM stock solution using TECAN digital dispenser (D300e) and concentration of DMSO was normalized to 0.1%. […]
Cells were harvested 3 days later, resuspended in 15 μL PBS, lysed in 4% SDS, and homogenized by passing through homogenizer column (Omega Biotek, Catalog #: HCR003). Total protein concentration were determined by BCA assay (ThermoFisher Scientific, Catalog #: 23225). […] SmD3me2s bands were quantified by ImageJ. […] IC50 values were calculated using Graphpad Prism ([Inhibitor] vs. normalized response-Variable slope).

With `Nc1ncnc2c1ccn2[C@@H]1O[C@H]([C@@H]2OCc3ccc(Cl)cc32)[C@@H](O)[C@H]1O` [Example 5, (2R,3R,4S,5S)-2-(4-amino-7H-pyrrolo[2,3-d]pyrimidin-7-yl)-5-((R)-6-chloro-1,3-dihydroisobenzofuran-1-yl)tetrahydrofuran-3,4-diol] the “increase in expression of γ-globin” value [1] was 8 fold, the “increase in expression of γ-globin” value ([2]; 0.1 μM) was 1.5 fold and the “increase in expression of γ-globin” value ([2]; 1 μM) was 2 fold. For the same molecule, the pIC50 [3] was 7.80.
